Test results taken from patent US20040092588A1, “Antiseptic for wounds and mucous membranes” (priority 2001, published 2004).

System: human amnion cells (FL cells)
Assay: neutral red uptake cytotoxicity test
Assay type: cell-based
Settings: 24 h at 37° C.
Procedure: In this test, adherent cultures of human amnion cells (FL cells) are incubated for 24 h at 37° C. with the desired concentration of the test substance in complete MEM culture medium with 5% FBS in a 5% CO2/air atmosphere. The culture medium and test substance are then removed, and new culture medium with neutral red is added. Since vital FL cells take up the dye neutral red in their lysosomes, the intensity of the eluted red coloration is correlated with the proportion of living cells. The intensity is automatically determined by the absorbance at a 540 nm test wavelength/655 nm reference wavelength. Information about the cytotoxic activity of the test substance can be obtained by comparison with a control group that was incubated with phosphate-buffered salt solution (PBS) instead of with the test substance. In addition, this model can be used to test and compare different formulations.
In the present test, different concentrations of octenidine dihydrochloride in PBS and Octenisept® (containing octenidine dihydrochloride and phenoxyethanol) were compared with each other and with PBS. The concentration values refer to the concentration of octenidine dihydrochloride.
The measured absorbances are plotted in FIGS. 1-2. Each measurement is based on 32 individual measurements. Inferential statistical analysis was performed by the U-test. […]

**Q.** What does the source list for CCCCCCCCN=c1ccn(CCCCCCCCCCn2ccc(=NCCCCCCCC)cc2)cc1.Cl.Cl [octenidine dihydrochloride]?
**A.** cytotoxic activity relative to comparable concentrations in Octenisept: significantly lower; absorbance (neutral red, 540 nm/655 nm) relative to Octenisept (all tested concentrations, U-test): significantly elevated
